According to ChEMBL document CHEMBL5291721, “A preclinical secondary pharmacology resource illuminates target-adverse drug reaction associations of marketed drugs” (Nat Commun, 2023):

Key:
[1] = molecular target: 5-hydroxytryptamine receptor 2A (Homo sapiens, UniProt P28223)
[2] = molecular target: Gamma-aminobutyric acid receptor subunit alpha-1/alpha-2/beta-2/gamma-2 (Homo sapiens, UniProt P14867+P18507+P47869+P47870); format: functional, cell-based
Androgen receptor = molecular target: T1, Androgen receptor (Rattus norvegicus, UniProt P15207)
T1 sequence (P15207 whole entry): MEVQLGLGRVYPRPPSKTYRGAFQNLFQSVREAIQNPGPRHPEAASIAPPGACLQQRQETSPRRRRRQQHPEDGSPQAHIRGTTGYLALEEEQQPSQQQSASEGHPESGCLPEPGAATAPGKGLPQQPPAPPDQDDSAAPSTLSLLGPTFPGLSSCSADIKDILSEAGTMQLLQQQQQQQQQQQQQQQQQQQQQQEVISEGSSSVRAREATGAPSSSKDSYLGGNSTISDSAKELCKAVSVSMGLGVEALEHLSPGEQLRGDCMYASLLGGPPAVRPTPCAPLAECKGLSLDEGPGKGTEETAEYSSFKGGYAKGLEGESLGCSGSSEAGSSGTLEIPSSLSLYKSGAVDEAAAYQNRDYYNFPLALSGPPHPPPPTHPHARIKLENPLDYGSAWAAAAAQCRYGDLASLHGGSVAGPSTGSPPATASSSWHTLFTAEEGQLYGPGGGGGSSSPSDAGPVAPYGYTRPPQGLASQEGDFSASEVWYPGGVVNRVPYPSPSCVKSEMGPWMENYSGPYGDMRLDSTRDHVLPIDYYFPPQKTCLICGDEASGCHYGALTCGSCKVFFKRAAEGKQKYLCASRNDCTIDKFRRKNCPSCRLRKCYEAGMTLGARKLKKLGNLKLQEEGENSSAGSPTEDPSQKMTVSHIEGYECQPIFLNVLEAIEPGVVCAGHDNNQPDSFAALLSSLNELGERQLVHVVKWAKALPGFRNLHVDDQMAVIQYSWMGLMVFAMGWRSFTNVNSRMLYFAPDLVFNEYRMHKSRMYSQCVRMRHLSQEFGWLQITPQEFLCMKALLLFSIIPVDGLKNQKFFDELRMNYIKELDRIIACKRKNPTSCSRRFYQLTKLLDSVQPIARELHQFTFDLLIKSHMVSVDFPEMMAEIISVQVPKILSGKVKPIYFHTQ

[3] = molecular target: T2, Corticotropin-releasing factor receptor 2 (Homo sapiens, UniProt Q13324)
T2 sequence (Q13324 whole entry): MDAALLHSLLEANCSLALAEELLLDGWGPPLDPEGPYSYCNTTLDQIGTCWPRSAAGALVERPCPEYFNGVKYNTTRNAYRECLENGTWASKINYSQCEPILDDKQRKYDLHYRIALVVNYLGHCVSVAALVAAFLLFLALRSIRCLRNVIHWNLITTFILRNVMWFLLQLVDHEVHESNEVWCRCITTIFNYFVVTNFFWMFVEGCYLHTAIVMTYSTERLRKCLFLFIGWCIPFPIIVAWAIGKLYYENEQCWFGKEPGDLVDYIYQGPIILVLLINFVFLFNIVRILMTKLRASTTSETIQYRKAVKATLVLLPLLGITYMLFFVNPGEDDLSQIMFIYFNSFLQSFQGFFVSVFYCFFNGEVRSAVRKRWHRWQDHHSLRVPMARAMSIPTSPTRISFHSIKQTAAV

Glucagon receptor = Glucagon receptor (Homo sapiens, UniProt P47871)
Histamine H2 receptor = Histamine H2 receptor (Homo sapiens, UniProt P25021)
[4] = molecular target: T3, Alpha-2A adrenergic receptor (Homo sapiens, UniProt P08913)
T3 sequence (P08913 whole entry): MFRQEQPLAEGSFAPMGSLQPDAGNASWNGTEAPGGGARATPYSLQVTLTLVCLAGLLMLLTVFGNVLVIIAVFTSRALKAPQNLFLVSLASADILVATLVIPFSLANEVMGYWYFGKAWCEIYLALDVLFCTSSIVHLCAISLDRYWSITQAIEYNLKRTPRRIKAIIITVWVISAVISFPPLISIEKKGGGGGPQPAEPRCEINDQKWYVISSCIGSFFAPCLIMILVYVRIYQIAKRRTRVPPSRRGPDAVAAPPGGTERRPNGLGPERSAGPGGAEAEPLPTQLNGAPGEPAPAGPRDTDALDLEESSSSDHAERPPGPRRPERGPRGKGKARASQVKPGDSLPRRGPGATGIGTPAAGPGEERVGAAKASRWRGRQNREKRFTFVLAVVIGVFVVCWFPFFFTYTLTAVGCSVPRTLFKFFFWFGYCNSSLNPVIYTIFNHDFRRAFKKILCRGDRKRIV

[5] = molecular target: T4, Muscarinic acetylcholine receptor M2 (Homo sapiens, UniProt P08172)
T4 sequence (P08172 whole entry): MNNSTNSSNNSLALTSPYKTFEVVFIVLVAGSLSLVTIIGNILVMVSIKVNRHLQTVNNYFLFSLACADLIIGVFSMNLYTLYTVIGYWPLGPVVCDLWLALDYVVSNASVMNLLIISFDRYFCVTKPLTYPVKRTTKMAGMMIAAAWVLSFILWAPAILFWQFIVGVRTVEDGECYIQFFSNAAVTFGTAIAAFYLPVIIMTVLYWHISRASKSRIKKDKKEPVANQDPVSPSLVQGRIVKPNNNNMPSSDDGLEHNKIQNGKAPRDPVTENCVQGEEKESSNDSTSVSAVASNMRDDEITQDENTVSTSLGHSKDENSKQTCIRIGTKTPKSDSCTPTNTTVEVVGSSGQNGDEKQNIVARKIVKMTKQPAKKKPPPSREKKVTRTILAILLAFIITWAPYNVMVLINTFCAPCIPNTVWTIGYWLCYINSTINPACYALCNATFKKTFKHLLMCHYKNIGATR

Cannabinoid receptor 1 = Cannabinoid receptor 1 (Homo sapiens, UniProt P21554); format: functional
Estrogen receptor beta = Estrogen receptor beta (Homo sapiens, UniProt Q92731)
[6] = molecular target: 5-hydroxytryptamine receptor 6 (Homo sapiens, UniProt P50406)
[7] = molecular target: 5-hydroxytryptamine receptor 7 (Homo sapiens, UniProt P34969)
Further: assay procedure not described here.

Glucagon receptor, sequence (P47871 whole entry): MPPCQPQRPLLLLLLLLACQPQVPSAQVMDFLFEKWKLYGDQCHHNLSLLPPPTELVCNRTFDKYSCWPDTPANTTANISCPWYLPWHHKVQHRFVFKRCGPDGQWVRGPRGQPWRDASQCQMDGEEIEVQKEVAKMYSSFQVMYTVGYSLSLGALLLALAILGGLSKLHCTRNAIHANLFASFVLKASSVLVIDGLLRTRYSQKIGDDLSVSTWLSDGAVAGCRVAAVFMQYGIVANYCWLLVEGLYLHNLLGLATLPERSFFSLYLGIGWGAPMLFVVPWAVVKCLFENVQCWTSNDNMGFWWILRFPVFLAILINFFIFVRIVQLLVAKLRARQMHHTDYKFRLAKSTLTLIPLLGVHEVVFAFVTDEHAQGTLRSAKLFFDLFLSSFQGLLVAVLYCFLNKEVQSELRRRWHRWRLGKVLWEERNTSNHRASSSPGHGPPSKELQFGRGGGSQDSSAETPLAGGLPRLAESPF
Cannabinoid receptor 1, sequence (P21554 whole entry): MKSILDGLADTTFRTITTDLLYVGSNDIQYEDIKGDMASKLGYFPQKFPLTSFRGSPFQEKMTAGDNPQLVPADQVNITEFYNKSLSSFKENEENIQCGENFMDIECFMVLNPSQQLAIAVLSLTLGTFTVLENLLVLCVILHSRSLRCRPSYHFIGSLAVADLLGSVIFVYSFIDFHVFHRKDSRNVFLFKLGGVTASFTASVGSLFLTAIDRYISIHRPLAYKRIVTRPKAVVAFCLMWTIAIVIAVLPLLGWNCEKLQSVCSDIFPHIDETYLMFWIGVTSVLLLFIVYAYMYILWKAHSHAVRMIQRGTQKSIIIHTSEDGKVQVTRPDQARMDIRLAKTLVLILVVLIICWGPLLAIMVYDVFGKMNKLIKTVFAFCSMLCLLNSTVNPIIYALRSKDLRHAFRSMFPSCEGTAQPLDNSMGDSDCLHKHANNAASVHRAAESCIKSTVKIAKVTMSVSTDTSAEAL
5-hydroxytryptamine receptor 7, sequence (P34969 whole entry): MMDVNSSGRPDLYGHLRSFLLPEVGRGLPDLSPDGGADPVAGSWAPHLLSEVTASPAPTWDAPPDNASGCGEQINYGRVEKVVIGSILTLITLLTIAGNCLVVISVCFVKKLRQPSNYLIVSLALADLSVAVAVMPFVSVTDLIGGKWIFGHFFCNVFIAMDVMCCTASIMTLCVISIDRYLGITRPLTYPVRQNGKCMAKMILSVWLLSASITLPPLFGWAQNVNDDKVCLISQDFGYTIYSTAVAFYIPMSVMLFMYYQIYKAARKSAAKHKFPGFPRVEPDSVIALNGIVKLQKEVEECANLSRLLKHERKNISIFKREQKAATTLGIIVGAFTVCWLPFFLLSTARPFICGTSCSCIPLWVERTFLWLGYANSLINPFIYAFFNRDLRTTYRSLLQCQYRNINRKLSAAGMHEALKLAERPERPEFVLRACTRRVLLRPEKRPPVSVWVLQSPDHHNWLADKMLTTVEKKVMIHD
Gamma-aminobutyric acid receptor subunit alpha-1/alpha-2/beta-2/gamma-2, sequence (P14867 whole entry): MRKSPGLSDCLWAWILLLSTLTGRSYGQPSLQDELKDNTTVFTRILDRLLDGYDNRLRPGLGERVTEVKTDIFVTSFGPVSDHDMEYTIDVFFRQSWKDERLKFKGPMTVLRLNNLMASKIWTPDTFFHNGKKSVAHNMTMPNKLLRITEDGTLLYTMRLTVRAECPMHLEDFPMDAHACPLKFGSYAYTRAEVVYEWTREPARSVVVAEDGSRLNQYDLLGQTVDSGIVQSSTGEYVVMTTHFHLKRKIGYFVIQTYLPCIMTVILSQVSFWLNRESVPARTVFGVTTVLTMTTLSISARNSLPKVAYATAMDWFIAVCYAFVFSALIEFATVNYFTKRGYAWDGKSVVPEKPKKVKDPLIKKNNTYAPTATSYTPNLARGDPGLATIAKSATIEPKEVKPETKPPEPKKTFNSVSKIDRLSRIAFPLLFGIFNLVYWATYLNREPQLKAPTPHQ
Gamma-aminobutyric acid receptor subunit alpha-1/alpha-2/beta-2/gamma-2, sequence (P47870 whole entry): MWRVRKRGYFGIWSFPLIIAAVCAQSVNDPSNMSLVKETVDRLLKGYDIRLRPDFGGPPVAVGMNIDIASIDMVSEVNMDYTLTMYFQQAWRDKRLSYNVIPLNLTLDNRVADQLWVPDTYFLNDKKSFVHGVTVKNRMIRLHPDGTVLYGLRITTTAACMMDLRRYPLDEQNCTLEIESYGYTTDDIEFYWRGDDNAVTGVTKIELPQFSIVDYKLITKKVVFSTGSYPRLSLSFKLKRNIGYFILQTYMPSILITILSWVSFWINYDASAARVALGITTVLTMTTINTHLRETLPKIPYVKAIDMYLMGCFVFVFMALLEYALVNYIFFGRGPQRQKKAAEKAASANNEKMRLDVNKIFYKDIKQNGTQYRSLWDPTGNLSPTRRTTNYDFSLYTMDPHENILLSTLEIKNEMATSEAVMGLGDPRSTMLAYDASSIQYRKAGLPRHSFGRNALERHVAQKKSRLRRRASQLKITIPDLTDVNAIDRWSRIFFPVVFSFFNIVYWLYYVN
Gamma-aminobutyric acid receptor subunit alpha-1/alpha-2/beta-2/gamma-2, sequence (P18507 whole entry): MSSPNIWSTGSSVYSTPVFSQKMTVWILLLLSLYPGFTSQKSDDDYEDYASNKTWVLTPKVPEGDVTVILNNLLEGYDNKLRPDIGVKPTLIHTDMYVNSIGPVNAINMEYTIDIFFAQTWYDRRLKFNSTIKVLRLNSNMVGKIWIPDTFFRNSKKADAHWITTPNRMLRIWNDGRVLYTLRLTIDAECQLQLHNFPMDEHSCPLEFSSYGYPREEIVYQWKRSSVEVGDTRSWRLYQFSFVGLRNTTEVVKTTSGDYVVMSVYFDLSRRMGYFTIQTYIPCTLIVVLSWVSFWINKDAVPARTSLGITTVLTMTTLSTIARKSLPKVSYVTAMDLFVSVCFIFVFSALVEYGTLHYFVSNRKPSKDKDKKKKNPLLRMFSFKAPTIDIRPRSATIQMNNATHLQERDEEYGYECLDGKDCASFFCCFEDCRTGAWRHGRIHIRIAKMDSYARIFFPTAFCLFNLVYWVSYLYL
Gamma-aminobutyric acid receptor subunit alpha-1/alpha-2/beta-2/gamma-2, sequence (P47869 whole entry): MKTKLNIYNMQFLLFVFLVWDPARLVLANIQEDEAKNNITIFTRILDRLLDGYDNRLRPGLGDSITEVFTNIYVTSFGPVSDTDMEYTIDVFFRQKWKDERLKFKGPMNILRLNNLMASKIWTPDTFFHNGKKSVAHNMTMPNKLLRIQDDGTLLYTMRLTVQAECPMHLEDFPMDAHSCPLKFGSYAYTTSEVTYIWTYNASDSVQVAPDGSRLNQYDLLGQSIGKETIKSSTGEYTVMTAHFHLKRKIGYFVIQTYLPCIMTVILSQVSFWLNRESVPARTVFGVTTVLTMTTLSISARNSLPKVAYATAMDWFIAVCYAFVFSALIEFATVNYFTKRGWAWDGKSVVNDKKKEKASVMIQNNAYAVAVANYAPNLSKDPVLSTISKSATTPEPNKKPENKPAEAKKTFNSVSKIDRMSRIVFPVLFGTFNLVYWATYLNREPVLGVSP
5-hydroxytryptamine receptor 6, sequence (P50406 whole entry): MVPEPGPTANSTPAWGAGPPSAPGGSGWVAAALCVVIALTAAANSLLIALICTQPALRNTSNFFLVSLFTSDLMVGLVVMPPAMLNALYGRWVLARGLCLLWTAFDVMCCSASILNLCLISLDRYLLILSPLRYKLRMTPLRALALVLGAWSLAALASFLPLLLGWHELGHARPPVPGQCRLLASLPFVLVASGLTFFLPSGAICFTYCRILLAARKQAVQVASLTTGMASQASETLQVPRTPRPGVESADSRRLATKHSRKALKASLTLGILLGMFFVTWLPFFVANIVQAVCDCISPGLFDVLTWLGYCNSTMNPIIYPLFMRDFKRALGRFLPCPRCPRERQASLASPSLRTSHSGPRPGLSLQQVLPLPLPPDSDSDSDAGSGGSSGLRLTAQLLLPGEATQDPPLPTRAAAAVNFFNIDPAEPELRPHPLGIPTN
Estrogen receptor beta, sequence (Q92731 whole entry): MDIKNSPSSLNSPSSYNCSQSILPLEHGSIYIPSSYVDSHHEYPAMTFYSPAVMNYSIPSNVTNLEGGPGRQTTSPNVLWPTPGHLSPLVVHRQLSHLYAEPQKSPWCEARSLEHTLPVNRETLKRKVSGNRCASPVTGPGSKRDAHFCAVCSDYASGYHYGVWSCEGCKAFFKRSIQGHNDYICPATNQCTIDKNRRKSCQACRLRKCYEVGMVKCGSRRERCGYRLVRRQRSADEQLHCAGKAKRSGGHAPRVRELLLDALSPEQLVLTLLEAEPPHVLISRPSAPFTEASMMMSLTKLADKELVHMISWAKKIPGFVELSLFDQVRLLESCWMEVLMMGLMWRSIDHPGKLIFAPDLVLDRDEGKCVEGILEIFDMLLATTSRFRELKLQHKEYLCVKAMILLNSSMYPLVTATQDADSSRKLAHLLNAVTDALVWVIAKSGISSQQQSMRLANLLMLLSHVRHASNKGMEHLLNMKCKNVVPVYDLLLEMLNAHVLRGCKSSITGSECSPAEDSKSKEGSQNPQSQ
5-hydroxytryptamine receptor 2A, sequence (P28223 whole entry): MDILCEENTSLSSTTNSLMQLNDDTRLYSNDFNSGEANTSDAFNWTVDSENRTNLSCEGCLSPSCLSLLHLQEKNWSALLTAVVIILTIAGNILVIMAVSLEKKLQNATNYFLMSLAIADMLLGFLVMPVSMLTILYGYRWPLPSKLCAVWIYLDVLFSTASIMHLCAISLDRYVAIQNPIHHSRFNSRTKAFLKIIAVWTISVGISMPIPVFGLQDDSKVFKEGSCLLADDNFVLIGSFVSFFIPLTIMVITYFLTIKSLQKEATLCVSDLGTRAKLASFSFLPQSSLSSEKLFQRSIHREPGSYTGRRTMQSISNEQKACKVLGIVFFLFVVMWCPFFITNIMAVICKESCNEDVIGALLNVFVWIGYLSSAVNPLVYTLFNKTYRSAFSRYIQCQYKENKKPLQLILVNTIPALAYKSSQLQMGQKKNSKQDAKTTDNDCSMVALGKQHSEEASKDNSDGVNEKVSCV

With `O=C(O)c1cccc(-c2noc(-c3ccccc3F)n2)c1` the AC50 [1] was over 10 µM.

`CO/N=C(\C(=O)N[C@@H]1C(=O)N2C(C(=O)OCOC(=O)C(C)(C)C)=C(C)CS[C@H]12)c1csc(N)n1` was tested, and the AC50 [2] was over 30 µM.

`CCCC(=O)N1CCCN(c2nc(N)c3cc(OC)c(OC)cc3n2)CC1` [BUNAZOSIN] was tested, and the AC50 [2] was over 30 µM.

`C[N+](C)(C)CCOC(N)=O` [CARBAMOYLCHOLINE] was tested, and the AC50 (Androgen receptor) was over 10 µM and the AC50 [2] was over 30 µM.

For `COCC1=C(C(=O)OC(C)OC(=O)OC(C)C)N2C(=O)[C@@H](NC(=O)/C(=N\OC)c3csc(N)n3)[C@H]2SC1` (stereo partly drawn) [CEFPODOXIME PROXETIL], the AC50 [2] was over 30 µM.

In the case of `CC(C)(N)Cc1ccc(Cl)cc1` [CHLORPHENTERMINE], the AC50 [3] is reported as over 30 µM, the AC50 (Glucagon receptor) is reported as over 30 µM and the AC50 (Histamine H2 receptor) is reported as over 10 µM. It also gave an AC50 [4] of over 10 µM, an AC50 [5] of over 10 µM and an AC50 [1] of 9.06 µM.

Work on `NS(=O)(=O)c1cc2c(cc1Cl)NC(CC1CCCC1)NS2(=O)=O` (stereo not drawn) [CYCLOPENTHIAZIDE] yielded an AC50 [2] of over 30 µM.

`CN(C)[C@@H]1C(O)=C(C(N)=O)C(=O)[C@@]2(O)C(O)=C3C(=O)c4c(O)ccc(Cl)c4[C@@H](O)[C@H]3C[C@@H]12` [DEMECLOCYCLINE] showed an AC50 (Androgen receptor) of 2.6 µM.

For `O=C(Nc1ccccc1)OCC(CN1CCCCC1)OC(=O)Nc1ccccc1` (stereo not drawn) [DIPERODON], the AC50 (Cannabinoid receptor 1) was over 10 µM, the AC50 [3] was over 30 µM and the AC50 (Estrogen receptor beta) was over 30 µM. The AC50 (Glucagon receptor) was over 30 µM, the AC50 (Histamine H2 receptor) was over 10 µM and the AC50 [6] was over 10 µM. It also gave an AC50 [7] of over 10 µM, an AC50 [4] of over 10 µM and an AC50 [5] of over 10 µM. The AC50 [1] was over 10 µM.

`N/N=c1/cc2c(n[nH]1)CCN(C(=O)c1ccccc1)C2` [ENDRALAZINE] gave an AC50 [2] of over 30 µM.

Compound `C=C1C[C@@H]2[C@H](CC[C@]3(C)C(=O)CC[C@@H]23)[C@@]2(C)C=CC(=O)C=C12` [EXEMESTANE] has an AC50 [3] of over 30 µM, an AC50 (Estrogen receptor beta) of over 30 µM and an AC50 (Glucagon receptor) of over 30 µM. For the same compound, the AC50 [5] was over 10 µM and the AC50 [1] was 6.96 µM.

`CC(=O)N(CC(O)CO)c1c(I)c(C(=O)NCC(O)CO)c(I)c(C(=O)NCC(O)CO)c1I` (stereo not drawn) [IOHEXOL] was tested, and the AC50 [1] was over 10 µM.

In the case of `CN1C(=O)N(C)C2C1N(C)C(=O)N2C` (stereo not drawn) [MEBICAR], the AC50 [2] is reported as over 30 µM.

`CC(C)NCC1CCc2cc(CO)c([N+](=O)[O-])cc2N1` (stereo not drawn) [OXAMNIQUINE] showed an AC50 (Androgen receptor) of over 10 µM.

Compound `Nc1ccc(/N=N/c2ccccc2)c(N)n1` [PHENAZOPYRIDINE] has an AC50 [2] of over 30 µM.

Compound `CN(C)CCCN1c2ccccc2Sc2ccccc21` [PROMAZINE] has an AC50 (Cannabinoid receptor 1) of over 10 µM, an AC50 [3] of over 30 µM and an AC50 (Estrogen receptor beta) of over 30 µM. For the same compound, the AC50 (Glucagon receptor) was over 30 µM, the AC50 (Histamine H2 receptor) was 0.111 µM and the AC50 [6] was 0.242 µM. For the same compound, the AC50 [7] was 2.16 µM, the AC50 [4] was 5 µM and the AC50 [5] was 0.999 µM.

`O=C(O)CCn1c2c(c3ccccc31)C[C@H](NS(=O)(=O)c1ccc(F)cc1)CC2` [RAMATROBAN] was tested, and the AC50 (Glucagon receptor) was over 10 µM.

In the case of `O=P(O)(O)C(O)(Cc1cccnc1)P(=O)(O)O` [RISEDRONIC ACID], the AC50 (Cannabinoid receptor 1) is reported as over 10 µM, the AC50 [3] is reported as over 30 µM and the AC50 (Glucagon receptor) is reported as over 30 µM. It also gave an AC50 (Histamine H2 receptor) of over 10 µM, an AC50 [6] of over 10 µM and an AC50 [7] of over 10 µM. For the same compound, the AC50 [4] was over 10 µM.

With `O=C1CCC(N2C(=O)c3ccccc3C2=O)C(=O)N1` (stereo not drawn) [THALIDOMIDE] the AC50 [3] was over 30 µM, the AC50 (Estrogen receptor beta) was over 30 µM and the AC50 (Glucagon receptor) was over 30 µM. It also gave an AC50 (Histamine H2 receptor) of over 10 µM, an AC50 [4] of over 10 µM and an AC50 [5] of over 10 µM.

For `CC(=O)N[C@H]1[C@H]([C@H](O)[C@H](O)CO)OC(C(=O)O)=C[C@@H]1N=C(N)N` [ZANAMIVIR], the AC50 (Androgen receptor) was over 30 µM.
